The structures appear in SMILES notation.

Format in all cases: ADME, organism-based
The nature of data set [1]: Excretion in percutaneously dosed healthy human urine at 1166 mg up to 48 hrs. The conditions noted are these: topical or ocular, read-out: Activity.
Data set [2] in a line: Absorption in percutaneously dosed healthy human at 1166 mg. The note with it: in vivo, topical or ocular, read-out: Activity.
The next data set deals with Homo sapiens. Briefly: Time to reach maximum urine excretion rate in percutaneously dosed healthy human at 1166 mg. The conditions noted are these: in vivo, topical_or_ocular.
A short description of data set [3]: Apparent half-life of the terminal disposition phase half life in percutaneously dosed healthy human at 1166 mg. The note with it: in vivo, topical or ocular, read-out: t1/2 lambda z (converted).

Regarding `Oc1cc(Cl)ccc1Oc1ccc(Cl)cc1Cl` [TRICLOSAN], the dose excreted at 48 h in data set [1] stood at 4.9%. Moreover, in data set [2], the Fa is 5.9%. Besides, the Time in the data set with Homo sapiens came out at 11 h. Besides, the half-life in data set [3] is 10.8 h.

For the origin of these results see ChEMBL document CHEMBL1212743, “Absorption, pharmacokinetics, and safety of triclosan after dermal administration” (Antimicrob Agents Chemother, 2010).
